The record followed here is PubChem BioAssay AID179 (DTP/NCI, 2004).

The subject of the experiment is CEM cells HIV-1 protection, formazan growth assay. Kind of experiment: NCI AIDS Antiviral Assay. The conditions noted are these: for IC50: measured here: growth of uninfected CEM cells. In short, it runs like this:
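Steps: treat uninfected and HIV-1-infected human CEM cells at five drug levels; quantify growth by soluble formazan; retest any compound reaching 50% protection; classify actives from the retest.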

“And” between values parts separate entries of the source, which are not always exact repeats. Identical values can stand only once. The source made the active and inactive calls.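 Rule for the calls: active = compounds giving half or more protection of infected cells from virus-caused growth loss, again on retest; inactive = the rest.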

For `CC(C(=O)O)/C(=C\c1ccc2c(c1)OCO2)C(=O)O` (stereo not given), the outcome was inactive.
As for `Cc1c(-c2ccccc2)oc2c(C(=O)OCCN3CCCCC3)cccc2c1=O`, the outcome was inactive.
For the molecule `C=C(CCC(=O)N(CCc1c[nH]c2ccccc12)C(=O)c1ccccc1CSCC)C(=O)OC`, the EC50 is greater than 200 µM and the 50% inhibitory concentration (IC50) came to 15.1 µM.
For `CCOC(=O)C1(c2ccccc2)CCC(=O)CC1` the same measures were greater than 380 µM and greater than 380 µM.
The like results for `Cc1cc(=O)oc2cc(NCS(=O)(=O)O)ccc12` were, in that order, greater than 617 µM and greater than 617 µM.
In the case of `ON=C1CCCCC(=NO)CCCC1`, the EC50 was greater than 200 µM and the concentration for half-maximal inhibition (IC50) was greater than 200 µM.
Take `O=C(/C=C/c1ccccc1Cl)c1ccccc1`: the EC50 was greater than 21.4 µM and the IC50 was found to be 14.5 µM.
In the case of `C/C=C/CC(S(=O)(=O)c1ccccc1)S(=O)(=O)c1ccccc1`, the EC50 was greater than 100 µM and the IC50 is greater than 100 µM.
On to `O=C(O)C(O)C(O)C(=O)O` (stereo not given), for which the EC50 was greater than 200 µM and the IC50 is greater than 200 µM.
Turning to `O=c1oc2cccc(O)c2c(O)c1Cc1ccccc1`, the EC50 is greater than 200 µM and the IC50 is greater than 200 µM.
In the case of `COc1cc2ccnc3c2c(c1OC)CC1CC(O)C(OC)CC31` (stereo not given), the result was inactive.
On to `CC(=O)O/C(=C(/C#N)C(=O)O)C1C(C(=O)O)C(c2ccccc2[N+](=O)[O-])C=C(c2ccco2)N1c1ccncc1` (stereo not given), for which the EC50 was greater than 20 µM and the half-maximal inhibitory concentration (IC50) was found to be 2.4 µM.
With `C/C=C(\C)C(=O)O[C@@H]1CC[C@]2(CO2)C2(COC(C)=O)C(OC(C)=O)CC(C)[C@](C)(C[C@H](O)C3=CC(=O)OC3)[C@@H]12` (stereo not given in full), the outcome was inactive.
Consider `CCOCN1C(=O)C2CC(/C=C/C(=O)OC)=CN2C(=O)c2ccccc21` (stereo not given), for which the result was inactive.
For the molecule `CSc1nc(SC)c(Nc2cccc(C)c2)c(SC)n1`, the EC50 is greater than 200 µM and the IC50 is 3.47 µM.
For the molecule `N#CCCN1C(=O)CCC2(CCC(=O)N(CCC#N)C2=O)C1=O`, the EC50 was greater than 794 µM and the 50% inhibitory concentration (IC50) was greater than 794 µM.
`Cc1cccc2c1[nH]c1[nH]c(=O)[nH]c(=O)c12`: the EC50 is greater than 200 µM and the 50% inhibitory concentration (IC50) worked out at 151 µM.
As for `O=c1c(Nc2ccccc2)cn(CCOc2ccc(Cl)cc2)c(=O)n1CCOc1ccc(Cl)cc1`, the EC50 was greater than 200 µM and the IC50 was 145 µM.
As for `Cn1c(=O)c2nc3c(nc2n(C)c1=O)oc1ccccc13`, the outcome was inactive.
In the case of `O=C(O)P(=O)(O)O`, the EC50 was greater than 7940 µM and the IC50 was 5750 µM.
Consider `O=C(O/N=C1/CCC/C1=C\c1ccccc1)c1ccc([N+](=O)[O-])cc1`, for which the result was inactive.
Regarding `N=C(N)N1CCc2ccccc2C1`, the EC50 is greater than 200 µM and the 50% inhibitory concentration (IC50) was greater than 200 µM.
With `O=C(Sc1nnnn1-c1ccccc1)Sc1nnnn1-c1ccccc1`, the EC50 is 97.7 µM and the IC50 stood at 178 µM.
Consider `CC1=C(c2ccccc2)C(c2ccccc2)=C(c2ccccc2)C2(c3ccccc3)C(=O)C(C)CN12` (stereo not given), for which the EC50 was greater than 5.75 µM and the 50% inhibitory concentration (IC50) was greater than 5.75 µM.
In the case of `COc1cc2c(cc1OC)C(=O)Cc1ccc3c(c1CNCC2)OCO3`, the EC50 is greater than 141 µM and the 50% inhibitory concentration (IC50) was greater than 141 µM.
Regarding `COc1ccc(C2CC(=O)CC(c3ccc(OC)cc3)C23C(=O)CCCC3=O)cc1` (stereo not given), the EC50 was greater than 200 µM and the IC50 is greater than 200 µM.
As for `COC(=O)c1cc2c(C(=O)OC)cc1CSCc1cccc(c1)CSC2`, the EC50 is greater than 200 µM and the concentration for half-maximal inhibition (IC50) is greater than 200 µM.
Take `COc1ccc(-c2c3ccccc3c(-c3ccc(OCCBr)cc3)c3ccccc23)cc1`: the EC50 is greater than 100 µM and the concentration for half-maximal inhibition (IC50) was greater than 100 µM.
On to `c1ccc(CN2COc3c(ccc4c5c(ccc34)CN(Cc3ccccc3)CO5)C2)cc1`, for which the EC50 is greater than 2.45 µM and the IC50 is greater than 2.45 µM.
Take `CCCCCCc1cc(C(=O)Nc2ccc(Cl)cc2)nc(=S)[nH]1`: the EC50 is greater than 708 µM and the IC50 stood at 479 µM.
For `Cc1cn(C2CC(ON3C(=O)c4ccccc4C3=O)C(CO)O2)c(=O)[nH]c1=O` (stereo not given), the concentration for a half-maximal effect (EC50) is 26.9 µM and > 200 µM; the IC50 was greater than 200 µM.
Turning to `COC(=O)C1=C(C(=O)OC)C23CC1C1C(C(=O)OC)=C(C(=O)OC)C12C1C=CC3C2C(=O)OC(=O)C21` (stereo not given), the EC50 is greater than 14.5 µM and the IC50 was greater than 14.5 µM.
Consider `O=C1CCC2(c3ccc(F)cc3)Nc3ncccc3N12` (stereo not given), for which the EC50 was greater than 132 µM and the IC50 is greater than 132 µM.
In the case of `COc1ccc2c(-c3ccc(OCCN(C)C)cc3)c(Oc3ccccc3)c(=O)oc2c1`, the EC50 was greater than 200 µM and the 50% inhibitory concentration (IC50) is 7.08 µM.
For `CC(CN1NC12CCCC2)N1NC12CCCC2` (stereo not given), the EC50 is greater than 200 µM and the half-inhibitory concentration (IC50) was greater than 200 µM.
As for `CCOC(=O)C1=NN(c2ccccc2)C(=O)/C1=C\N1C(=S)NC(=O)/C1=C\c1cccc([N+](=O)[O-])c1`, the EC50 was greater than 200 µM and the half-maximal inhibitory concentration (IC50) turned out to be 89.1 µM.
With `O=C(/C=C/c1ccc(Cl)cc1)c1ccc(Cl)s1`, the EC50 was greater than 200 µM.
Turning to `CN1CCc2c([nH]c3ccccc23)C1`, the EC50 is greater than 200 µM and the IC50 was greater than 200 µM.
Take `Cc1ccc2c(c1)C(=O)N1CSCC1C(=O)S2` (stereo not given): the EC50 is greater than 251 µM and the IC50 came out at 32.4 µM.
Consider `CCOC(=O)C1(C(=O)OCC)C[C@H](C)[C@](C)(O)C1`, for which the EC50 is greater than 200 µM and the IC50 was greater than 200 µM.
With `CC(C)Oc1c(O)c2c3c(oc(=O)n3C=CC2c2ccccc2F)c1OC(C)C` (stereo not given), the EC50 is greater than 200 µM and the half-maximal inhibitory concentration (IC50) was 29.5 µM.
Turning to `CC#CCOC(=O)c1ccccc1OC(C)=O.[C-]#[O+].[C-]#[O+].[C-]#[O+].[C-]#[O+].[C-]#[O+].[C-]#[O+].[Co].[Co]`, the EC50 was greater than 200 µM and the IC50 was 7.76 µM.
For `CC1(C)OC(=O)CC2(C)OC12` (stereo not given) the same measures were greater than 200 µM and greater than 200 µM.
In the case of `CCCC(C(=O)OCC)N1C(=O)c2ccccc2S1(=O)=O` (stereo not given), the EC50 was greater than 200 µM and the IC50 turned out to be 148 µM.
Take `Nc1ncnc2c1ncn2CC1OCC(CO)O1` (stereo not given): the EC50 is greater than 3090 µM; the IC50 was 2750 µM and 2340 µM.
`COc1cc(OC)c(OC)cc1/C=C/c1cc[n+](C)c2ccccc12`: the EC50 was greater than 200 µM and the half-maximal inhibitory concentration (IC50) stood at 7.59 µM.
Turning to `CCOC(=O)C1=C(O)C(=O)c2ccsc2C1=O`, the EC50 was greater than 708 µM and the half-maximal inhibitory concentration (IC50) was found to be 120 µM.
The like results for `COc1ccc(/C=C2\NC(=S)N(/C=C3\C(=O)Oc4ccccc4C3=O)C2=O)cc1` were, in that order, greater than 200 µM and 148 µM.
Take `CC(O)CN1C(=O)c2cccc3cc([N+](=O)[O-])cc(c23)C1=O` (stereo not given): the EC50 is greater than 200 µM and the IC50 came to 12 µM.
As for `COc1ccc2[nH]c3c(c2c1)CCNC3CC(C)CCC=C(C)C` (stereo not given), the EC50 is greater than 100 µM and the IC50 is 6.31 µM.
`CCOC(=O)NC(C)(C)CN(CCO)C(=O)OCC`: the EC50 was greater than 200 µM and the concentration for half-maximal inhibition (IC50) is greater than 200 µM.
For `c1ccc(CC2(c3cc4ccccc4[nH]3)OCCO2)nc1`, the EC50 was greater than 200 µM and the half-maximal inhibitory concentration (IC50) turned out to be 174 µM.
For `COc1cc2c(c(O)c1OC)C(=O)C1CCC(=O)N1C2c1cccc2ccccc12` (stereo not given) the same measures were greater than 200 µM and 31.6 µM.
Take `COC1(C2c3ccccc3CCN2C(=O)OC(C)(C)C)C(=O)C(c2ccccc2)=C1N(C)C` (stereo not given): the EC50 was greater than 200 µM and the IC50 was determined as 36.3 µM.

As usually defined, the EC50 is the midpoint of the concentration-response curve. In general, IC50 refers to the point on the concentration scale where inhibition reaches its midpoint. A higher IC50 goes with weaker potency in that assay.
